Results reported in patent publication US8653052B2, “Drug combination and its use in the treatment of muscle loss” (Acacia Pharma Limited, priority 2007, dated 2014).
Structures can show the parent of a compound that is named as a salt.

Assays:
[1] = system: tumour bearing rats (AH-130 Yoshida ascites hepatoma); assay: Yoshida AH-130 rat ascites hepatoma cachexia model, initial experiment: total food intake; assay type: in vivo; details: at day 3, racemic formoterol 10 μg/kg/day, alone or with megestrol acetate 100 mg/kg/day
Text: This study involves the use of the Yoshida AH-130 rat ascites hepatoma model, which is a particularly suitable model system for studying the mechanisms involved in the establishment of cachexia. Its growth in the host causes rapid and progressive loss of bodyweight and tissue wasting, particularly in skeletal muscle. […] Co-administration of each of these β2 agonists with the progestin, megestrol acetate, is also investigated.
Wistar rats weighing about 100 g are used (Busquets et al 2004, Cancer Res 64:6725-6731). The animals are maintained on a regular light-dark cycle (light from 08.00 am to 8.00 pm) with free access to food and water. Their diet consists of 54% carbohydrate, 17% protein and 5% fat, and the food intake is measured daily. Rats are given an intraperitoneal inoculum of 10^8 AH-130 Yoshida ascites hepatoma cells obtained from exponential tumours.
The animals were divided into groups: those receiving the test drugs and those receiving vehicle. Drug administration is by subcutaneous injection. Seven days after tumour transplantation, the animals are weighed and anaesthetised with a ketamine/xylacine mixture. The tumour is harvested from the peritoneal cavity, and its volume and cellularity evaluated. […]
In an initial experiment, the tumour bearing rats were divided into three groups. […] The rats were monitored over a 3 day period.

[2] = as reported in U.S. Pat. No. 5,449,694; cited from earlier work
cancer patients = details: cited from earlier work; for Effect on appetite, calorie intake and nutritional status: several clinical trials

Compound: COc1ccc(CC(C)NCC(O)c2ccc(O)c(NC=O)c2)cc1 (racemic) [racemic formoterol, (±)-N-[2-Hydroxy-5-[1(R*)-hydroxy-2-[1(R*)-methyl-2-(4-methoxyphenyl)ethylamino]ethyl]phenyl]formamide fumarate (2:1) monohydrate]
- Total food intake [1]: 45±2 g/100 g rat

Compound: C[C@@H](NCCc1ccc(O)cc1)[C@@H](O)c1ccc(O)cc1.Cl (single isomer, unassigned) [(−)-ritodrine]
- Relative potency of enantiomers [2]: more potent enantiomer

Compound: CC(=O)O[C@]1(C(C)=O)CC[C@H]2[C@@H]3C[C@H](C)C4=CC(=O)CC[C@]4(C)[C@H]3CC[C@@]21C [medroxy-progesterone acetate]
- Effect on appetite, calorie intake and nutritional status (cancer patients): improve appetite, calorie intake and nutritional status

Compound: CC(=O)O[C@]1(C(C)=O)CC[C@H]2[C@@H]3C=C(C)C4=CC(=O)CC[C@]4(C)[C@H]3CC[C@@]21C [megestrol acetate]
- Cancer patients treated with a weight gain of greater than 5% (cancer patients; cancer patients, significant component of the gain due to fat): 15%
- Effect on appetite, calorie intake and nutritional status (cancer patients): improve appetite, calorie intake and nutritional status
